# Measurements: patent US12569170B2, “Paramagnetic sodium NMR macrocyclic-based biosensors, and associated methods” (Yale University, priority 2021, dated 2026)
# “Also recorded” adds a separate entry of the source.
# Legend:
# [1] = Concentration effects of Dotarem and Gadavist on ^23Na spectra, concentric tubes phantom; assay type: physicochemical; details: 20 mM, 10 mM, 5 mM in outer compartment, tubes parallel to the magnetic field
# Experimental: Spectra are shown for 20 mM, 10 mM, and 5 mM, where 0 ppm corresponds to the natural, unshifted ^23Na resonance of the inner compartment to which no agent was added.
# [2] = Bulk magnetic susceptibility (BMS) contribution to chemical shift in phantoms; assay type: physicochemical; details: phantoms
# Text: Upon translation of the present in vitro results to in vivo situations, certain confounding factors must be addressed. In the interstitial space, there are additional cations such as calcium (Ca^2+), magnesium (Mg^2+) and K^+ which will also bind to anionic contrast agents like TmDOTP^5−. However, physiologically their concentrations are low compared to Na^+. […] Additionally, there is a contribution to the chemical shift from bulk magnetic susceptibility (BMS) changes brought about by TmDOTP^5− in addition to the hyperfine shifts induced by interactions with Na^+. Experiments were performed on different DOTP^8− salts in phantoms parallel and perpendicular to the main magnetic field B0, and also spherical phantoms in which there was no BMS contribution. Only a small portion (˜2%) of the total chemical shift for TmDOTP^5− was due to BMS arising due to anisotropy of the paramagnetic susceptibility, and the remainder was the hyperfine shift.
# U87-bearing rat brain = assay: In vivo ^23Na-MRSI line broadening in glioma models
# Text: FIGS. 10C-10F illustrates images according to certain embodiments of the disclosure. […] However, the ^23Na linewidth analysis by TmDOTP^5− is confounded by its high ^23Na shiftability. This peak separation in vivo overestimates the full-width at half-maximum (FWHM) calculations and exaggerates the measured ^23Na linewidths.
# Slice 1 is most superficial, and slice 3 is the deepest. The tumor outline is depicted in white in all columns.
# This establishes GdDOTP^5−-induced ^23Na linewidth broadening as a potential surrogate marker for the altered Na^+ biodistribution within tumors. Thus, in brain tumor models, TmDOTP^5− with ^23Na-NMR can separate Na^+ in intracellular, blood, and interstitial pools, while GdDOTP^5− can distinguish Na^+ within intracellular and extracellular (i.e., blood and interstitial) pools.
# Because the majority of the present studies looked at ^23Na chemical shift, the line broadening capabilities of these paramagnetic agents were also interrogated. […] This is due to the high magnetic moment of Gd^3+ which contributes to some degree of anisotropy to the paramagnetic susceptibility. […] Crucially, this family of paramagnetic agents has allowed to insightful probing of the tumor microenvironment and drawing of significant conclusions about tumor aggressiveness based on spectroscopic analysis.
# [3] = Comparison of ^23Na shiftability and broadening potential of DOTP agents; assay type: physicochemical
# U87 tumors = assay: Sorafenib treatment of U87 GBM models monitored by ^1H-MRI and ^23Na-MRSI; assay type: in vivo, rat; details: for tumor growth: U87, 0.1 g/kg body weight daily oral gavage from day 9, imaged 6 days after, vs DMSO control
# Experimental: FIG. 9 depicts spatial distributions of compartmentalized ^23Na signals (Na^+b, Na^+e, Na^+i) as well as transendothelial (ΔNa^+end) and transmembrane (ΔNa^+mem) gradients in a pair of U87 tumors, one of which was treated with sorafenib, an anti-angiogenic tyrosine kinase inhibitor that targets vascular endothelial growth factor receptor (VEGFR) and platelet-derived growth factor receptor (PDGFR). Sorafenib dosage was 0.1 g/kg body weight, dissolved in dimethylsulfoxide (DMSO) for the treated animal, whereas the untreated control received an equivalent dose of pure DMSO. Daily treatment began on day 9 post-tumor-inoculation, and imaging was performed an additional 6 days after.
# Having established the utility of ^23Na-MRSI in vivo with TmDOTP^5−, additional applications of Na^+ imaging were explored, such as monitoring therapeutic efficacy or using other agents to probe different spectroscopic characteristics. A separate cohort of U87 GBM models were treated with sorafenib, an anti-angiogenic tyrosine kinase inhibitor, with some animals kept as controls. Sorafenib treatment (0.1 g/kg body weight) began on day 9 following tumor inoculation and was dissolved in dimethylsulfoxide (DMSO) to be delivered via oral gavage. […] Therefore, ^23Na-MRSI with TmDOTP^5− has potential to effectively image the efficacy of cancer drugs.
molecule,measurement,setting,value
"O=C([O-])CN1CCN(CC(=O)[O-])CCN([C@H](CO)[C@H](O)CO)CCN(CC(=O)[O-])CC1.[Gd+3] [Gadavist, Gd^3+2,2′,2″-(10-((2R,3S)-1,3,4-trihydroxybutan-2-yl)-1,4,7,10-tetraazacyclododecane-1,4,7-triyl)triacetate]",^23Na shiftability,[1],shiftability stronger than the other Gd^3+-based agents with macrocyclic chelates
O=P([O-])([O-])CN1CCN(CP(=O)([O-])[O-])CCN(CP(=O)([O-])[O-])CCN(CP(=O)([O-])[O-])CC1.[Gd+3] [GdDOTP^5−],BMS contribution to chemical shift,[2],dominated by BMS effect
same,^23Na line broadening in tumor versus normal tissue,"U87-bearing rat brain; glioma models, after agent infusion",most prominent within in the tumor; also recorded: considerable linewidth broadening within gliomas; also recorded: larger within the tumor as well compared to healthy tissue
same,correlation of tumoral line broadening with increases in ΔNa^+end and decreases in ΔNa^+mem,"U87-bearing rat brain; same rat, gradients from TmDOTP^5− shifts",correlated well
same,"broadening potential (sensitivity of linewidth to agent concentration), words",[3],high broadening potentials; also recorded: comparable broadening potential as TmDOTP^5−
same,"shiftability (sensitivity of ^23Na chemical shift to agent concentration), words",[3],without inducing ^23Na shift differences between compartments; also recorded: smaller shiftability
CNC(=O)c1cc(Oc2ccc(NC(=O)Nc3ccc(Cl)c(C(F)(F)F)c3)cc2)ccn1 [sorafenib],tumor growth,U87 tumors,slow tumor growth compared to untreated animals
same,tumor growth,U87 tumors; listed as Sorafenib,retarded the growth rate of the tumor
same,"region of alterations in Na^+ distribution (elevated Na b and ΔNa^+end, decreased Na^+e and ΔNa^+mem)","U87 tumors; U87, treated vs untreated tumor, ^23Na-MRSI with TmDOTP^5−",confined to a smaller region for the treated tumor
"Gd^3+2-[4,7,10-tris(carboxymethyl)-1,4,7,10-tetrazacyclododec-1-yl]acetate [Dotarem]",^23Na shiftability,[1],shiftability stronger than the other Gd^3+-based agents with macrocyclic chelates
